# Where a SMILES comes first, the peptide text is derived from it. [ ]: non-standard residue; d: D form. dNMeI = CC[C@@H](C)[C@@H](NC)C(=O)O; NMeF = CN[C@@H](Cc1ccccc1)C(=O)O; dNMeF = CN[C@H](Cc1ccccc1)C(=O)O; NMeL = CN[C@@H](CC(C)C)C(=O)O; dNMeL = CN[C@H](CC(C)C)C(=O)O; NMeV = CN[C@H](C(=O)O)C(C)C; NMeA = CN[C@@H](C)C(=O)O; dNMeA = CN[C@H](C)C(=O)O
# Conditions: PAMPA, PAMPA_Papp_Avg (apparent permeability)
row,SMILES,Papp [×10⁻⁶ cm/s]
1,"CC(C)C[C@@H]1NC(=O)[C@@H](Cc2ccccc2)N(C)C(=O)[C@H](C(C)C)NC(=O)[C@H](C)NC(=O)[C@@H](C)NC(=O)[C@@H](Cc2ccccc2)N(C)C(=O)[C@@H]2CCCN2C(=O)[C@H](C(C)C)NC(=O)[C@@H]2CCCN2C(=O)[C@@H](C)NC1=O [Design D10.48, aPVP*faAV*fL] (cyclo(AV[dNMeF]L[dA]PVP[dNMeF][dA]))",0.716
2,"CC[C@H](C)[C@@H]1NC(=O)[C@H](Cc2ccccc2)N(C)C(=O)[C@H]2CCCN2C(=O)[C@@H](CC(C)C)N(C)C(=O)[C@@H](Cc2ccccc2)NC(=O)[C@H](C(C)C)NC(=O)[C@H](CC(C)C)NC(=O)[C@H]2CCCN2C(=O)[C@H](CC(C)C)NC(=O)[C@@H]2CCCN2C1=O [Design D10.50, LVf*lp*FIPLp] (cyclo(IPL[dP]LV[dF][dNMeL][dP][NMeF]))",0.628
3,"CC[C@@H](C)[C@H]1NC(=O)[C@H]([C@@H](C)CC)NC(=O)[C@H](Cc2ccccc2)N(C)C(=O)[C@H]2CCCN2C(=O)[C@@H]([C@H](C)CC)NC(=O)[C@@H]([C@H](C)CC)N(C)C(=O)[C@H](CC(C)C)NC(=O)[C@H]2CCCN2C(=O)[C@@H]2CCCN2C(=O)[C@H](C(C)C)NC(=O)[C@H]2CCCN2C1=O [Design D11.4, VPpL*iip*FIip] (cyclo(I[dI][dP]VP[dP]L[dNMeI][dI][dP][NMeF]))",1.84
4,"CC[C@@H](C)[C@H]1NC(=O)[C@H](C)NC(=O)[C@@H](CC(C)C)N(C)C(=O)[C@H](CC(C)C)N(C)C(=O)[C@H](C(C)C)NC(=O)[C@@H]2CCCN2C(=O)[C@@H](CC(C)C)N(C)C(=O)[C@@H](C)N(C)C(=O)[C@@H](Cc2ccccc2)NC(=O)[C@@H]2CCCN2C(=O)[C@H]2CCCN2C1=O [Design D11.6, V*L*lAipPf*a*lP] (cyclo([dF][dNMeA][dNMeL]PV[NMeL][dNMeL]A[dI][dP]P))",1.7
5,"CC[C@H](C)[C@@H]1NC(=O)[C@@H](CC(C)C)N(C)C(=O)[C@H](CC(C)C)N(C)C(=O)[C@@H](Cc2ccccc2)NC(=O)[C@@H](CC(C)C)N(C)C(=O)[C@H]2CCCN2C(=O)[C@H]2CCCN2C(=O)[C@@H]2CCCN2C(=O)[C@@H](C(C)C)NC(=O)[C@@H]2CCCN2C(=O)[C@H](C)NC1=O [Design D11.11, Ppp*lf*L*lIAPv] (cyclo(AP[dV]P[dP][dP][dNMeL][dF][NMeL][dNMeL]I))",2.81
6,"CC[C@H](C)[C@@H]1NC(=O)[C@@H]2CCCN2C(=O)[C@H]2CCCN2C(=O)[C@@H](CC(C)C)NC(=O)[C@@H](CC(C)C)N(C)C(=O)[C@@H](C(C)C)NC(=O)[C@H](C(C)C)NC(=O)[C@H]2CCCN2C(=O)[C@@H]2CCCN2C(=O)[C@H]([C@@H](C)CC)NC(=O)[C@H](C)N(C)C1=O [Design D11.13, PpVv*llpPI*AI] (cyclo(I[NMeA]IP[dP]V[dV][dNMeL][dL][dP]P))",1.43
7,"CC(C)C[C@@H]1NC(=O)[C@@H](C)NC(=O)[C@H]2CCCN2C(=O)[C@@H]2CCCN2C(=O)[C@@H](C(C)C)NC(=O)[C@@H](CC(C)C)N(C)C(=O)[C@H]2CCCN2C(=O)[C@H]2CCCN2C(=O)[C@@H](C)N(C)C(=O)[C@H](CC(C)C)N(C)C(=O)[C@@H](Cc2ccccc2)NC1=O [Design D11.16, Lf*L*app*lvPpa] (cyclo(L[dF][NMeL][dNMeA][dP][dP][dNMeL][dV]P[dP][dA]))",0.993
8,"CC[C@H](C)[C@@H]1NC(=O)[C@H](C(C)C)NC(=O)[C@@H](CC(C)C)N(C)C(=O)[C@H](Cc2ccccc2)NC(=O)[C@@H](CC(C)C)N(C)C(=O)[C@@H](C)N(C)C(=O)[C@H]2CCCN2C(=O)[C@@H]2CCCN2C(=O)[C@H](CC(C)C)NC(=O)[C@@H](C)N(C)C(=O)[C@@H]2CCCN2C1=O [Design D11.20, P*aLPp*a*lF*lVI] (cyclo(F[dNMeL]VIP[dNMeA]LP[dP][dNMeA][dNMeL]))",1.1
9,"CC[C@H](C)[C@@H]1NC(=O)[C@@H]2CCCN2C(=O)[C@H]2CCCN2C(=O)[C@@H](Cc2ccccc2)NC(=O)[C@@H](CC(C)C)N(C)C(=O)[C@H](C(C)C)NC(=O)[C@@H](CC(C)C)NC(=O)[C@@H]2CCCN2C(=O)[C@H]2CCCN2C(=O)[C@@H](C)N(C)C(=O)[C@H](C(C)C)N(C)C1=O [Design D11.21, PI*V*apPlV*lfp] (cyclo(I[NMeV][dNMeA][dP]P[dL]V[dNMeL][dF][dP]P))",0.206

# Reference: US20260274895A1, “DE NOVO DESIGNED MEMBRANE-TRAVERSING AND ORALLY BIOAVAILABLE MACROCYCLES” (UNIVERSITY OF WASHINGTON, priority 2022, published 2026)
